Data taken from patent publication US5300491A, “Treatment of protozoal infection” (priority 1992, dated 1994).
Like-named read-outs stand apart in the source and are kept apart here. Bridge positions count the residues as written; N and C are the ends. Square brackets hold non-standard residues; d marks the D form. Peptide text beside a SMILES is read from it. * marks the point of attachment. Ileψ(thiazoline)Cys = CC[C@H](C)[C@H](N)C1=N[C@H](C(=O)*)CS1; dOrn = NCCC[C@@H](N)C(=O)O

Tested on: Entamoeba histolytica
Assay type: cell-based
Source text: E. histolytica isolates representing three distinct zymodemes (I, II or XIV) were derived from a range of geographical locations. The patients from whom the isolates were obtained were either pathogenic (i.e. presented dysentery), or non-pathogenic (i.e., presented a non-dysenteric stage of infection characterized by passing of cysts or trophozoites). The following table identifies the E. histolytica isolates in accordance with the above criteria:
Each isolate was a xenic culture, i.e., it contained, in addition to the E. histolytica amoeba, the normally occurring patient faecal microflora. The cultures were maintained according to the method of Robinson, Trans. Roy. Soc. Trop. Med. Hyg. 62, 285-94, (1968). Bacitracin (70 I.U./mg) and its zinc salt (65 I.U./mg) were obtained from Apothekernes Laboratorium A.S (Oslo, Norway). Following microtitre-assay standardization and pilot testing of the drugs (results not presented), the following assay procedure was established. Bacitracin was screened over the range of 20.0-0.625 mg/ml by doubling dilution. 30 mg/ml bacitracin was also examined. […] The remaining wells were run as controls. An initial stock solution of 75 mg/ml bacitracin was prepared in starch-free Robinson medium (SFRM) . Subsequent to loading the first set of wells, the stock was diluted with SFRM to 50 mg/ml, which was used to prepare the remaining concentrations. […] 100 μl volumes of both drugs were then double-diluted in SFRM to provide 2.5X concentrates of the required final concentrations in the microtitre plates. 50 μl of a 25 mg% starch (BDH) solution (in SFRM) was then added to each well. 16-18 hours before the end of the required 48-hour culture period, the amoeba isolates were passaged to fresh tubes containing starch-free Robinson medium. At the end of the culture period, the amoebae were harvested in a small volume of medium and resuspended in at least 20 volumes SFRM. The suspensions were centrifuged at 1000 rpm for 5 minutes prior to re-suspension in fresh medium and counted in a modified Neubauer chamber. Amoebae were centrifuged as before and the pellet resuspended to a concentration of 2.5×10^4 /ml SFRM. 100 μl aliquots were then pipetted into respective wells to provide duplicate cultures of each isolate for each concentration assayed. The plates were then placed in an anaerobic chamber (HP11, Oxoid) at 37° C. for 24 hours. While this procedure provided sufficient starch for the amoebae, the concentration was such that at 24 hours the plates were easily read and quantitified by direct observation using an inverted microscope. Viability was assessed by the addition of Trypan blue to a final concentration of 0.1%.
Readings from each of the studies were collected and stored until all three experiments were completed in order to reduce any bias in subsequent readings. Minimun inhibitory and minimum lethal concentrations were given in mg/ml. […]

[1] = xenic isolate 70k, Experiment 1
[2] = xenic isolate 70k, Experiment 2
[3] = xenic isolate 70k, Experiment 3
[4] = xenic isolate 116k, Experiment 1
[5] = xenic isolate 116k, Experiment 2
[6] = xenic isolate 116k, Experiment 3
[7] = xenic isolate 418, Experiment 1
[8] = xenic isolate 418, Experiment 2
[9] = xenic isolate 418, Experiment 3
[10] = xenic isolate 1246, Experiment 1
[11] = xenic isolate 1246, Experiment 2
[12] = xenic isolate 1246, Experiment 3
[13] = xenic isolate AiDO, Experiment 1
[14] = xenic isolate AiDO, Experiment 2
[15] = xenic isolate AiDO, Experiment 3
[16] = xenic isolate BiLO, Experiment 1
[17] = xenic isolate BiLO, Experiment 3
[18] = xenic isolate DOGO, Experiment 1
[19] = xenic isolate DOGO, Experiment 2
[20] = xenic isolate DOGO, Experiment 3
[21] = xenic isolate OMAk, Experiment 1
[22] = xenic isolate OMAk, Experiment 3
[23] = xenic isolate Sh2, Experiment 2
[24] = xenic isolate Sh2, Experiment 3
[25] = xenic isolate T2k, Experiment 1
[26] = xenic isolate T2k, Experiment 2
[27] = xenic isolate T2k, Experiment 3
[28] = xenic isolate URU1, Experiment 1
[29] = xenic isolate URU1, Experiment 2
[30] = xenic isolate URU1, Experiment 3
[31] = xenic isolate URU19, Experiment 1

Compound: CC[C@H](C)[C@H](N)C1=N[C@H](C(=O)N[C@@H](CC(C)C)C(=O)N[C@H](CCC(=O)O)C(=O)N[C@H](C(=O)N[C@H]2CCCCNC(=O)[C@H](CC(N)=O)NC(=O)[C@@H](CC(=O)O)NC(=O)[C@H](Cc3cnc[nH]3)NC(=O)[C@@H](Cc3ccccc3)NC(=O)[C@H]([C@@H](C)CC)NC(=O)[C@@H](CCCN)NC2=O)[C@@H](C)CC)CS1 [Bacitracin, reference compound] ({Ileψ(thiazoline)Cys}-L[dE]IK[dOrn]I[dF]H[dD]N; lactam 4-C)
- MICs (span over all xenic isolates and studies): 0.63 to 10.0 mg/mL
- Minimum Lethal Concentration (MLC) (xenic Isolate 1, single study over a narrower range of drug concentration (Table 4)): 21 mg/mL
- Minimum Lethal Concentration (MLC) (xenic Isolate C1, single study over a narrower range of drug concentration (Table 4)): 24 mg/mL
- Minimum Inhibitory Concentration (MIC) (xenic isolate 1, Experiment 1): 5.0 mg/mL
- Minimum Lethal Concentration (MLC) (xenic isolate 1, Experiment 1): 30.0 mg/mL
- Minimum Inhibitory Concentration (MIC) (xenic isolate 1, Experiment 2): 10.0 mg/mL
- Minimum Lethal Concentration (MLC) (xenic isolate 1, Experiment 2): 30.0 mg/mL
- Minimum Inhibitory Concentration (MIC) (xenic isolate 1, Experiment 3): 5.0 mg/mL
- Minimum Lethal Concentration (MLC) (xenic isolate 1, Experiment 3): 30.0 mg/mL
- Minimum Inhibitory Concentration (MIC) [1]: 5.0 mg/mL
- Minimum Lethal Concentration (MLC) [1]: 30.0 mg/mL
- Minimum Inhibitory Concentration (MIC) [2]: 5.0 mg/mL
- Minimum Lethal Concentration (MLC) [2]: 20.0 mg/mL
- Minimum Inhibitory Concentration (MIC) [3]: 10.0 mg/mL
- Minimum Lethal Concentration (MLC) [3]: 30.0 mg/mL
- Minimum Inhibitory Concentration (MIC) [4]: 10.0 mg/mL
- Minimum Lethal Concentration (MLC) [4]: 30.0 mg/mL
- Minimum Inhibitory Concentration (MIC) [5]: 1.25 mg/mL
- Minimum Lethal Concentration (MLC) [5]: 30.0 mg/mL
- Minimum Inhibitory Concentration (MIC) [6]: 1.25 mg/mL
- Minimum Lethal Concentration (MLC) [6]: 30.0 mg/mL
- Minimum Inhibitory Concentration (MIC) [7]: 5.0 mg/mL
- Minimum Lethal Concentration (MLC) [7]: 30.0 mg/mL
- Minimum Inhibitory Concentration (MIC) [8]: 0.63 mg/mL
- Minimum Lethal Concentration (MLC) [8]: 20.0 mg/mL
- Minimum Inhibitory Concentration (MIC) [9]: 0.63 mg/mL
- Minimum Lethal Concentration (MLC) [9]: 20.0 mg/mL
- Minimum Inhibitory Concentration (MIC) [10]: 2.5 mg/mL
- Minimum Lethal Concentration (MLC) [10]: 30.0 mg/mL
- Minimum Inhibitory Concentration (MIC) [11]: 10.0 mg/mL
- Minimum Lethal Concentration (MLC) [11]: 20.0 mg/mL
- Minimum Inhibitory Concentration (MIC) [12]: 0.63 mg/mL
- Minimum Lethal Concentration (MLC) [12]: 20.0 mg/mL
- Minimum Inhibitory Concentration (MIC) [13]: 10.0 mg/mL
- Minimum Lethal Concentration (MLC) [13]: 30.0 mg/mL
- Minimum Inhibitory Concentration (MIC) [14]: 2.5 mg/mL
- Minimum Lethal Concentration (MLC) [14]: 30.0 mg/mL
- Minimum Inhibitory Concentration (MIC) [15]: 2.5 mg/mL
- Minimum Lethal Concentration (MLC) [15]: 30.0 mg/mL
- Minimum Inhibitory Concentration (MIC) [16]: 5.0 mg/mL
- Minimum Lethal Concentration (MLC) [16]: 30.0 mg/mL
- Minimum Inhibitory Concentration (MIC) [17]: 1.25 mg/mL
- Minimum Lethal Concentration (MLC) [17]: 20.0 mg/mL
- Minimum Inhibitory Concentration (MIC) (xenic isolate C1, Experiment 1): 10.0 mg/mL
- Minimum Lethal Concentration (MLC) (xenic isolate C1, Experiment 1): 30.0 mg/mL
- Minimum Inhibitory Concentration (MIC) (xenic isolate C1, Experiment 2): 5.0 mg/mL
- Minimum Lethal Concentration (MLC) (xenic isolate C1, Experiment 2): 20.0 mg/mL
- Minimum Inhibitory Concentration (MIC) (xenic isolate C1, Experiment 3): 1.25 mg/mL
- Minimum Lethal Concentration (MLC) (xenic isolate C1, Experiment 3): 20.0 mg/mL
- Minimum Inhibitory Concentration (MIC) (xenic isolate C2, Experiment 1): 2.5 mg/mL
- Minimum Lethal Concentration (MLC) (xenic isolate C2, Experiment 1): 30.0 mg/mL
- Minimum Inhibitory Concentration (MIC) (xenic isolate C2, Experiment 2): 5.0 mg/mL
- Minimum Lethal Concentration (MLC) (xenic isolate C2, Experiment 2): 20.0 mg/mL
- Minimum Inhibitory Concentration (MIC) (xenic isolate C2, Experiment 3): 2.5 mg/mL
- Minimum Lethal Concentration (MLC) (xenic isolate C2, Experiment 3): 30.0 mg/mL
- Minimum Inhibitory Concentration (MIC) (xenic isolate DA, Experiment 1): 2.5 mg/mL
- Minimum Lethal Concentration (MLC) (xenic isolate DA, Experiment 1): 30.0 mg/mL
- Minimum Inhibitory Concentration (MIC) (xenic isolate DA, Experiment 2): 5.0 mg/mL
- Minimum Lethal Concentration (MLC) (xenic isolate DA, Experiment 2): 30.0 mg/mL
- Minimum Inhibitory Concentration (MIC) (xenic isolate DA, Experiment 3): 0.63 mg/mL
- Minimum Lethal Concentration (MLC) (xenic isolate DA, Experiment 3): 20.0 mg/mL
- Minimum Inhibitory Concentration (MIC) [18]: 2.5 mg/mL
- Minimum Lethal Concentration (MLC) [18]: 30.0 mg/mL
- Minimum Inhibitory Concentration (MIC) [19]: 2.5 mg/mL
- Minimum Lethal Concentration (MLC) [19]: 20.0 mg/mL
- Minimum Inhibitory Concentration (MIC) [20]: 0.63 mg/mL
- Minimum Lethal Concentration (MLC) [20]: 10.0 mg/mL
- Minimum Inhibitory Concentration (MIC) (xenic isolate GS, Experiment 1): 2.5 mg/mL
- Minimum Lethal Concentration (MLC) (xenic isolate GS, Experiment 1): 30.0 mg/mL
- Minimum Inhibitory Concentration (MIC) (xenic isolate GS, Experiment 2): 1.25 mg/mL
- Minimum Lethal Concentration (MLC) (xenic isolate GS, Experiment 2): 20.0 mg/mL
- Minimum Inhibitory Concentration (MIC) (xenic isolate GS, Experiment 3): 0.63 mg/mL
- Minimum Lethal Concentration (MLC) (xenic isolate GS, Experiment 3): 30.0 mg/mL
- Minimum Inhibitory Concentration (MIC) (xenic isolate MS, Experiment 1): 5.0 mg/mL
- Minimum Lethal Concentration (MLC) (xenic isolate MS, Experiment 1): 30.0 mg/mL
- Minimum Inhibitory Concentration (MIC) (xenic isolate MS, Experiment 2): 2.5 mg/mL
- Minimum Lethal Concentration (MLC) (xenic isolate MS, Experiment 2): 20.0 mg/mL
- Minimum Inhibitory Concentration (MIC) (xenic isolate MS, Experiment 3): 1.25 mg/mL
- Minimum Lethal Concentration (MLC) (xenic isolate MS, Experiment 3): 20.0 mg/mL
- Minimum Inhibitory Concentration (MIC) [21]: 2.5 mg/mL
- Minimum Lethal Concentration (MLC) [21]: 30.0 mg/mL
- Minimum Inhibitory Concentration (MIC) [22]: 1.25 mg/mL
- Minimum Lethal Concentration (MLC) [22]: 30.0 mg/mL
- Minimum Inhibitory Concentration (MIC) (xenic isolate SI, Experiment 1): 2.5 mg/mL
- Minimum Lethal Concentration (MLC) (xenic isolate SI, Experiment 1): 30.0 mg/mL
- Minimum Inhibitory Concentration (MIC) (xenic isolate SI, Experiment 3): 2.5 mg/mL
- Minimum Lethal Concentration (MLC) (xenic isolate SI, Experiment 3): 20.0 mg/mL
- Minimum Inhibitory Concentration (MIC) [23]: 5.0 mg/mL
- Minimum Lethal Concentration (MLC) [23]: 20.0 mg/mL
- Minimum Inhibitory Concentration (MIC) [24]: 2.5 mg/mL
- Minimum Lethal Concentration (MLC) [24]: 30.0 mg/mL
- Minimum Inhibitory Concentration (MIC) [25]: 2.5 mg/mL
- Minimum Lethal Concentration (MLC) [25]: 30.0 mg/mL
- Minimum Inhibitory Concentration (MIC) [26]: 2.5 mg/mL
- Minimum Lethal Concentration (MLC) [26]: 30.0 mg/mL
- Minimum Inhibitory Concentration (MIC) [27]: 0.63 mg/mL
- Minimum Lethal Concentration (MLC) [27]: 30.0 mg/mL
- Minimum Inhibitory Concentration (MIC) (xenic isolate T4, Experiment 1): 5.0 mg/mL
- Minimum Lethal Concentration (MLC) (xenic isolate T4, Experiment 1): 30.0 mg/mL
- Minimum Inhibitory Concentration (MIC) (xenic isolate T4, Experiment 2): 2.5 mg/mL
- Minimum Lethal Concentration (MLC) (xenic isolate T4, Experiment 2): 30.0 mg/mL
- Minimum Inhibitory Concentration (MIC) (xenic isolate T4, Experiment 3): 0.63 mg/mL
- Minimum Lethal Concentration (MLC) (xenic isolate T4, Experiment 3): 30.0 mg/mL
- Minimum Inhibitory Concentration (MIC) (xenic isolate T6, Experiment 1): 2.5 mg/mL
- Minimum Lethal Concentration (MLC) (xenic isolate T6, Experiment 1): 30.0 mg/mL
- Minimum Inhibitory Concentration (MIC) (xenic isolate T6, Experiment 2): 2.5 mg/mL
- Minimum Lethal Concentration (MLC) (xenic isolate T6, Experiment 2): 20.0 mg/mL
- Minimum Inhibitory Concentration (MIC) (xenic isolate T6, Experiment 3): 2.5 mg/mL
- Minimum Lethal Concentration (MLC) (xenic isolate T6, Experiment 3): 20.0 mg/mL
- Minimum Inhibitory Concentration (MIC) [28]: 2.5 mg/mL
- Minimum Lethal Concentration (MLC) [28]: 30.0 mg/mL
- Minimum Inhibitory Concentration (MIC) [29]: 2.5 mg/mL
- Minimum Lethal Concentration (MLC) [29]: 20.0 mg/mL
- Minimum Inhibitory Concentration (MIC) [30]: 1.25 mg/mL
- Minimum Lethal Concentration (MLC) [30]: 30.0 mg/mL
- Minimum Inhibitory Concentration (MIC) [31]: 2.5 mg/mL
- Minimum Lethal Concentration (MLC) [31]: 30.0 mg/mL
